From article PMC4595804, “A strategy to discover decoy chemokine ligands with an anti-inflammatory activity” (Scientific Reports, 2015)

Assays:
[1] = molecular target: T1, CCL17 N78V (Homo sapiens, UniProt Q92583, N78V); experiment: Calcium responses induced by chemokine mutant, neutraligand protocol; assay type: cell-based; details: 10 μM compound, 5 nM chemokine; remaining response
T1 construct: codes for the mature CCL17 or CCL22 with an N-terminal thioredoxin-hexahistidin (TRX- (His)6) tag; TRX-(His)6 (N, cleaved yes); made in house; host or cells: E. coli BL21 (DE3)
T1 sequence (Q92583 24-94 N78V): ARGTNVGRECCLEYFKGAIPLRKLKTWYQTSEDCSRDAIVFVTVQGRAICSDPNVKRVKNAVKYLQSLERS
Experimental: (§1) Dye loaded cells were placed in the FlexStation 3 (Molecular Devices). […] For the primary screening, the ligands (50μl of chemokine mixed with DMSO or test compounds) were added to the cells at 40 s, followed by digitonin addition (50μl) at 100 s to the cells. Molecules were screened at a final concentration of 2μg/ml with 5 nM CCL17 or CCL22. […] The calcium response values (height of peak response over baseline) were determined. Hits were selected by comparing the response amplitude at the time of the chemokine addition ± test compound. The Z’ factor[29] was calculated according to the following equation: Z’ = 1-(3SD+ + 3SD−)/|Ave+ − Ave−|, where SD+ and Ave+ are respectively the standard deviation and the mean value of the positive controls (chemokine + DMSO), while SD− and Ave− are respectively the standard deviation and the mean value of the negative controls (HEPES-BSA (0.1%) mixed with DMSO, or cells mixed with C-021). Hit molecules were confirmed by performing concentration-response curves and their half maximal inhibitory concentration (IC50) values were calculated using the Kaleidagraph software.
(§2) and the denaturated chemokines (disulfite bonds reduced by β-mercaptoethanol). The
(§3) chemokine activity was then, tested in the in vitro assays.
(§4) On-column refolding and purification of CCL5, CXCL8, CXCL10, CXCL11, CXCL12, CCL17
(§5) performed in a similar fashion as for CCL17 and CCL22. […]

[2] = molecular target: T2, CCL17 R80W (Homo sapiens, UniProt Q92583, R80W); experiment: as above; assay type: cell-based; details: 10 μM compound, 5 nM chemokine; remaining response
T2 construct: codes for the mature CCL17 or CCL22 with an N-terminal thioredoxin-hexahistidin (TRX- (His)6) tag; TRX-(His)6 (N, cleaved yes); made in house; host or cells: E. coli BL21 (DE3)
T2 sequence (Q92583 24-94 R80W): as the sequence (Q92583 24-94 N78V) above, with V55N, R57W counted along it
Experimental: as §1, §2, §3, §4, §5

[3] = molecular target: T3, CCL17 S74A (Homo sapiens, UniProt Q92583, S74A); experiment: as above; assay type: cell-based; details: 10 μM compound, 5 nM chemokine; remaining response
T3 construct: codes for the mature CCL17 or CCL22 with an N-terminal thioredoxin-hexahistidin (TRX- (His)6) tag; TRX-(His)6 (N, cleaved yes); made in house; host or cells: E. coli BL21 (DE3)
T3 sequence (Q92583 24-94 S74A): as the sequence (Q92583 24-94 N78V) above, with S51A, V55N counted along it
Experimental: as §1, §2, §3, §4, §5

[4] = tested on: human monocytes; experiment: Cytotoxicity in primary monocytes (Alamar Blue); assay type: cell-based; details: up to 250 μM, 24 h
Experimental: the wound closure was determined as the difference between wound width at times 0 and 72h. This experiment was repeated three times.
Human primary monocytes were isolated from buffy coats of healthy human blood donors and seeded in 24-well plates (500,000 cells/ml in 1ml) for COX-1/2 activity or 96-well plates for cell viability experiments.
Cells were seeded in 96 well plates (5,000 cells/well in 200µl) for cytotoxicity testing (Alamar […]
doses). After 24h, cytotoxicity was evaluated in the wells using the Alamar Blue method. NaF (250µg/ml) was used as a control in this experiment.
Cyclooxygenase (COX) activity
COX1 mediated prostaglandin E2 (PGE2) release. Monocytes were treated with arachidonic […]
were then collected for the determination of PGE2 by enzyme immunoassay (EIA) […]
COX2 mediated prostaglandin E2 (PGE2) release. Monocytes were incubated with LPS (10U/ml) for 24h to induce COX2 protein synthesis. After renewal of medium (serum free), […]
before AA treatment. The activity of COX2 was determined by measuring PGE2 (Cayman) in the supernatants by EIA. Aspirin (10µM) and diclofenac (10µM) were used as control

[5] = tested on: Balb/c mice sensitized and challenged with OVA; experiment: Mouse model of allergic eosinophilic airway inflammation (OVA), BAL cell counts; assay type: in vivo; details: vs vehicle-treated OVA mice; for overall number of inflammatory cells in BALF: 350 μmol/kg I.P. 2 h before each challenge; for CD4+ T cells in BALF / CD11c+F4/80− dendritic cells in BALF / T cells in BALF / neutrophil counts in BALF / number of CD11c+F4/80+ macrophages in BALF / recruited eosinophils in BALF: 350 μmol/kg I.P.
Experimental: The differential number of cells recovered in BAL fluid 24 h after the last challenge was counted by flow cytometry. Live leukocytes were identified as CD45^+DAPI^− cells then differentiated into T cells (CD11b^lowCD19^−CD3^+), CD4^+T cells (CD11b^lowCD19^−CD3^+CD4^+), eosinophils (CD11b^+CD11c^−GR1^−), neutrophils (CD11b^+CD11c^−GR1^+), macrophages (CD11b^+GR1^−CD11c^+F4/80^+), dendritic cells (CD11b^+GR1^−CD11c^+F4/80^−).
Nine week-old male Balb/c mice (Janvier) were sensitized on days 1 and 7 by intraperitoneal injection of ovalbumin (OVA, 50μg, grade V, Sigma-Aldrich) adsorbed on aluminium hydroxide (2 mg, Sigma-Aldrich) in PBS. Mice were challenged intranasally with OVA (10 μg) in 25μl of saline on days 18–21. Control mice received intranasal administrations of saline alone. […] Animal experimentation was approved by the local ethics committee (Comité Régional d’Ethique en Matière d’Expérimentation Animale de Strasbourg CREMEAS) and carried out in accordance with the approved guidelines. Collection of the bronchoalveolar lavage fluid (BALF) was performed 24 h after the last OVA challenge as described previously. Cell counts were assessed by flow cytometry (LSRII® cytometer, BD bioscience). BAL cells were added with FCblock (5 μl, 553142, BD bioscience) in a black microplate, incubated for 20 min at room temperature. Then, marker antibodies were added: CD11c-FITC (557400, BD bioscience), Gr-1-Pe-eFluor610 (61-5931-82, eBioscience), CD11b-APC-Cy7 (557657, BD bioscience), CD45-AlexaFluor700 (103128, BioLegend), CD3-BV605 (564009, BD bioscience), CD4-PerCP-Cy5.5 (45-0042-82, eBioscience), F4/80-PE (12-4801-82, eBioscience). Antibodies were incubated for 30 min before DAPI (5 μl, BD bioscience) addition, and flow cytometry was performed immediately.

[6] = molecular target: T4, CCR4 (Homo sapiens, UniProt P51679); experiment: EGFP-CCR4 receptor surface level / endocytosis on EGFP-CCR4+ HEK cells; assay type: cell-based; details: without chemokine, data not shown
T4 construct: signal peptide fused to EGFP (N); expressed in transfected cells; host or cells: HEK-293
T4 sequence (P51679 1-360): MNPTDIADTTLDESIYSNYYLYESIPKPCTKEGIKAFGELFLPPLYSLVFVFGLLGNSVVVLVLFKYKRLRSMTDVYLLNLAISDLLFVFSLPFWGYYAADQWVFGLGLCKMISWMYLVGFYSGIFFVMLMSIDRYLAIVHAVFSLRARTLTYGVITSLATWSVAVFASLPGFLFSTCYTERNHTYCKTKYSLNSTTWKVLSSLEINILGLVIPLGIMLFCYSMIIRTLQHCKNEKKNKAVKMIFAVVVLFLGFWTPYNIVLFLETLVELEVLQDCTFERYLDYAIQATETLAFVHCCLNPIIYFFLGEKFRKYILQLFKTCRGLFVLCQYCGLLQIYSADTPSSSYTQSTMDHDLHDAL
Experimental: CCR4 levels were evaluated by flow cytometry (FACSCalibur, BD biosciences) using cell surface labeling of EGFP with monoclonal mouse anti-GFP (Roche Applied Science; 1:100 dilution) as primary antibody and R-phycoerythrin conjugated AffiniPure F (ab’)2 fragment goat anti-mouse (Immunotech; 1/100) as secondary antibody.

Structure (SMILES)	calcium response induced by CCL17 N78V preincubated with compound [1]	calcium response induced by CCL17 R80W preincubated with compound [2]	calcium response induced by CCL17 S74A preincubated with compound [3]	cell toxicity on human monocytes (Alamar Blue) [4]	overall number of inflammatory cells in BALF [5]	CD4+ T cells in BALF [5]	CD11c+F4/80− dendritic cells in BALF [5]	T cells in BALF [5]	neutrophil counts in BALF [5]	number of CD11c+F4/80+ macrophages in BALF [5]	recruited eosinophils in BALF [5]	effect on CCR4 receptor surface level on its own [6]
CC(C)=CCn1cnc2c1c(=O)n(C)c(=O)n2C [GPN279, 1,3-dimethyl-7-(3-methylbut-2-enyl)-1H-purine-2,6(3H, 7H)-dione]	75.0 ± 6.0%	50.0 ± 11.0%	no longer acted as a neutralizing molecule	absence of cell toxicity	significantly reduced	significantly reduced	significantly reduced	significantly reduced	significantly inhibited	not modified	significantly reduced	Neither GPN279 nor GPN136 did alter
O=C(OCC(O)CO)c1ccccc1O (stereo not drawn) [GPN136, 2,3-dihydroxypropyl 2-hydroxybenzoate]	totally ineffective	totally ineffective	totally ineffective	absence of cell toxicity	significantly reduced	significantly reduced	significantly reduced	significantly reduced	did not	not modified	significantly reduced	Neither GPN279 nor GPN136 did alter
